The results in this text go back to ChEMBL document CHEMBL1201862, “PubChem BioAssay data set” (2004).

Among the test systems are 786-0; A498; CCRF-CEM; HCC 2998; HCT-116; HOP-92; LOX IMVI; M14; MCF7; Malme-3M; NCI-H522; NCI/ADR-RES; SF-295; SF-539; SK-MEL-5; SN12C; SNB-75; SR; SW-620.
Common to all, as to assay: NCI tumour cell line growth inhibition, 48 h

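Test compounds were applied to cells in 96-well plates for 48 hours at 5 doses. Abbreviation: GI50, concentration required for 50% inhibition of growth.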 Calls of active or inactive are those of the source. No stated cut-off is given here; in the data, active = GI50 up to about 1.1 µM and inactive = higher.

Take `O=C1C(N2CCN(CCOCCO)CC2)=C(Cl)C(=O)c2ncccc21`: the GI50 with 786-0 was 21.4 µM (inactive); in the assay with A498, > 10 µM (inactive); in the assay on CCRF-CEM it was 1.92 µM (inactive); with HCC 2998, > 10 µM (inactive); with HCT-116, 5.71 µM (inactive); in the assay on HOP-92, 2.62 µM (inactive). Moreover, the GI50 in the assay on LOX IMVI is 12.7 µM (inactive); in the assay with M14 it was 20.8 µM (inactive); in the assay with MCF7, 3.78 µM (inactive); in the assay on Malme-3M it was 8.77 µM (inactive); with NCI-H522, 2.08 µM (inactive); in the assay with NCI/ADR-RES, 37.4 µM (inactive). Besides, the GI50 was > 10 µM (inactive) with SF-295; 21.1 µM (inactive) with SF-539; 16.6 µM (inactive) with SK-MEL-5; 19.5 µM (inactive) in the assay with SN12C; 38.3 µM (inactive) in the assay on SNB-75; > 10 µM (inactive) with SR. The GI50 in the assay on SW-620 was 23 µM (inactive).

Consider `CC1(F)C=CC(=O)C=C1`, for which the GI50 with 786-0 was 17 µM (inactive); in the assay on A498, > 100 µM (inactive); in the assay with CCRF-CEM it was 47.5 µM (inactive); with HCC 2998, > 100 µM (inactive); in the assay with HCT-116, 38.4 µM (inactive); in the assay on HOP-92, 30.5 µM (inactive). Besides, the GI50 in the assay with LOX IMVI was 16.3 µM (inactive); with M14, > 100 µM (inactive); with MCF7, 31.8 µM (inactive); with Malme-3M, 18.4 µM (inactive); in the assay on NCI-H522, 37.4 µM (inactive); in the assay on NCI/ADR-RES it was 17.6 µM (inactive). Further, the GI50 in the assay on SF-295 was > 100 µM (inactive); in the assay on SF-539 it was 37.9 µM (inactive); in the assay on SK-MEL-5 it was > 100 µM (inactive); with SN12C, > 100 µM (inactive); in the assay with SNB-75, > 100 µM (inactive); in the assay with SR, 32.6 µM (inactive). In addition, the GI50 with SW-620 is 22.2 µM (inactive).

For `N#CC(C#N)=C/C=C/c1c(Cl)cccc1Cl`, the GI50 is 1.71 µM (inactive) in the assay with 786-0; 2.99 µM (inactive) in the assay on A498; 1.34 µM (inactive) with CCRF-CEM; 1.84 µM (inactive) with HCC 2998; 1.34 µM (inactive) in the assay on HCT-116; 2.42 µM (inactive) with HOP-92. Moreover, the GI50 in the assay on LOX IMVI is 1.73 µM (inactive); with M14 it was 1.69 µM (inactive); with MCF7, 1.94 µM (inactive); in the assay with Malme-3M it was 1.73 µM (inactive); with NCI-H522 it was 1.65 µM (inactive); in the assay on NCI/ADR-RES it was 1.96 µM (inactive). Further, the GI50 with SF-295 is 2.07 µM (inactive); in the assay with SF-539, 1.28 µM (inactive); in the assay on SK-MEL-5, 1.85 µM (inactive); in the assay with SN12C, 1.8 µM (inactive); in the assay on SNB-75, 2.84 µM (inactive); in the assay with SR, 1.7 µM (inactive). In addition, the GI50 in the assay on SW-620 is 1.92 µM (inactive).

Take `C=CC1ON(C)CCc2cc(OC)c(OC)cc21` (centres undefined): the GI50 with 786-0, in the assay with A498, in the assay with CCRF-CEM, with HCC 2998, in the assay with HCT-116 and in the assay with HOP-92 was > 100 µM (inactive) in each case. The GI50 is > 100 µM (inactive) in the assay on LOX IMVI; > 100 µM (inactive) with M14; 1.63 µM (inactive) in the assay on MCF7; > 100 µM (inactive) in the assay on Malme-3M; > 100 µM (inactive) in the assay with NCI-H522; > 100 µM (inactive) in the assay with NCI/ADR-RES. Besides, the GI50 in the assay on SF-295, in the assay with SF-539, with SK-MEL-5, in the assay with SN12C, in the assay on SNB-75 and with SR was > 100 µM (inactive) each time. Also, in the assay on SW-620, the GI50 was > 100 µM (inactive).

As for `C/C=C/C(O)P(=O)(OC)OC` (centres undefined), the GI50 in the assay on 786-0 was 0.173 µM (active); in the assay with A498, 0.316 µM (active); in the assay on CCRF-CEM it was 0.227 µM (active); in the assay with HCC 2998, 0.27 µM (active); in the assay with HCT-116 it was 0.254 µM (active); in the assay with HOP-92, < 0.0385 µM (active). Besides, the GI50 with LOX IMVI is 0.187 µM (active); with M14 it was 0.207 µM (active); in the assay on MCF7, 0.269 µM (active); with Malme-3M, 0.296 µM (active); in the assay on NCI-H522, 0.214 µM (active); in the assay on NCI/ADR-RES, 0.473 µM (active). Besides, the GI50 in the assay on SF-295 was 0.366 µM (active); in the assay on SF-539, 0.279 µM (active); with SK-MEL-5 it was 0.196 µM (active); with SN12C it was 0.4 µM (active); in the assay with SNB-75 it was 0.312 µM (active); in the assay with SR, 0.257 µM (active). Further, in the assay with SW-620, the GI50 is 0.277 µM (active).

On to `Cc1cccc(/C=N/NC(=S)NCc2ccccn2)n1`, for which the GI50 in the assay with 786-0 was 17.9 µM (inactive); with A498, 49.2 µM (inactive); in the assay on CCRF-CEM, 24.2 µM (inactive); in the assay on HCC 2998 it was 41.7 µM (inactive); in the assay on HCT-116, 29.4 µM (inactive); in the assay with HOP-92, 25.9 µM (inactive). The GI50 was 14.7 µM (inactive) in the assay on LOX IMVI; 18.6 µM (inactive) in the assay on M14; 31.8 µM (inactive) in the assay with MCF7; 22.1 µM (inactive) with Malme-3M; 34.3 µM (inactive) in the assay with NCI-H522; 25.2 µM (inactive) in the assay with NCI/ADR-RES. The GI50 is 27.5 µM (inactive) in the assay with SF-295; 23.4 µM (inactive) in the assay on SF-539; 17.7 µM (inactive) in the assay with SK-MEL-5; 30.6 µM (inactive) in the assay on SN12C; 17.6 µM (inactive) in the assay on SNB-75; 38.9 µM (inactive) in the assay with SR. The GI50 in the assay with SW-620 is 22.1 µM (inactive).

For the molecule `CC(C)CC(NC(=O)C(C)(CI)Cc1ccccc1)C(=O)Nc1ccccc1` (centres undefined), the GI50 with 786-0 is > 100 µM (inactive); in the assay with A498, > 100 µM (inactive); with CCRF-CEM, > 100 µM (inactive); in the assay with HCC 2998 it was > 100 µM (inactive); with HCT-116 it was 31 µM (inactive); in the assay on HOP-92, > 100 µM (inactive). In addition, the GI50 with LOX IMVI, in the assay with M14, with MCF7, in the assay on Malme-3M, in the assay with NCI-H522 and in the assay with NCI/ADR-RES was > 100 µM (inactive) each time. Further, the GI50 was > 100 µM (inactive) in the assay on SF-295; > 100 µM (inactive) in the assay on SF-539; > 100 µM (inactive) in the assay on SK-MEL-5; > 100 µM (inactive) in the assay with SN12C; 86.5 µM (inactive) in the assay with SNB-75; 22.1 µM (inactive) in the assay with SR. Further, the GI50 in the assay on SW-620 was > 100 µM (inactive).

As for `C=C(C(N)=O)c1ccc([N+](=O)[O-])o1`, the GI50 in the assay with 786-0 was 11.2 µM (inactive); with A498 it was 12.6 µM (inactive); in the assay on CCRF-CEM, 3.22 µM (inactive); in the assay with HCC 2998 it was 16.7 µM (inactive); in the assay with HCT-116 it was 3.97 µM (inactive); with HOP-92, 6.49 µM (inactive). For the same molecule, the GI50 in the assay on LOX IMVI is 10.1 µM (inactive); in the assay on M14 it was 2.82 µM (inactive); in the assay on MCF7, 6.11 µM (inactive); with Malme-3M, 2.2 µM (inactive); in the assay with NCI-H522 it was 1.97 µM (inactive); in the assay with NCI/ADR-RES it was 15.5 µM (inactive). Also, the GI50 with SF-295 is 42 µM (inactive); in the assay on SF-539, 12.6 µM (inactive); in the assay on SK-MEL-5 it was 5.74 µM (inactive); in the assay with SN12C, 10.3 µM (inactive); in the assay with SNB-75, 9.46 µM (inactive); with SR, 9.46 µM (inactive). For the same molecule, the GI50 in the assay with SW-620 is 5.81 µM (inactive).

In the case of `O=c1ssc(Cl)c1Nc1c(Cl)ssc1=O`, the GI50 with 786-0 was 17.8 µM (inactive); in the assay with A498 it was 17.8 µM (inactive); in the assay on CCRF-CEM, 3.78 µM (inactive); with HCC 2998, 22.3 µM (inactive); with HCT-116, 17.5 µM (inactive); in the assay with HOP-92 it was 20 µM (inactive). Further, the GI50 in the assay with LOX IMVI is 14.8 µM (inactive); with M14, 19.2 µM (inactive); in the assay with MCF7 it was 24.3 µM (inactive); in the assay on Malme-3M, 17.9 µM (inactive); with NCI-H522, 19.6 µM (inactive); in the assay on NCI/ADR-RES it was 27.2 µM (inactive). The GI50 was 41.4 µM (inactive) in the assay with SF-295; 25.1 µM (inactive) with SF-539; 17 µM (inactive) with SK-MEL-5; 19.5 µM (inactive) with SN12C; 25.9 µM (inactive) in the assay with SNB-75; 3.62 µM (inactive) in the assay on SR. Also, the GI50 in the assay with SW-620 is 15.8 µM (inactive).

`O=C(O)C(O)C(O)C(O)C(=O)CO` (centres undefined): the GI50 in the assay with 786-0, in the assay with A498, in the assay on CCRF-CEM, in the assay on HCC 2998, in the assay on HCT-116 and with HOP-92 was > 100 µM (inactive) throughout. For the same molecule, the GI50 in the assay with LOX IMVI, with M14, with MCF7, in the assay on Malme-3M, with NCI-H522 and with NCI/ADR-RES was > 100 µM (inactive) each time. The GI50 in the assay on SF-295, in the assay on SF-539, in the assay on SK-MEL-5, with SN12C, in the assay with SNB-75 and with SR was > 100 µM (inactive) in each case. Besides, in the assay with SW-620, the GI50 was > 100 µM (inactive).

Regarding `CC(C)CC(=O)NC(C(=O)NC(C(=O)NC(CC(C)C)C(O)CC(=O)NC(C)C(=O)NC(CC(C)C)C(O)CC(=O)O)C(C)C)C(C)C` (centres undefined), the GI50 in the assay with 786-0, with A498, in the assay on CCRF-CEM, with HCC 2998, in the assay on HCT-116 and with HOP-92 was > 100 µM (inactive) in each case. The GI50 in the assay on LOX IMVI, in the assay with M14, in the assay on MCF7, in the assay on Malme-3M, with NCI-H522 and with NCI/ADR-RES was > 100 µM (inactive) in each case. Moreover, the GI50 in the assay on SF-295, with SF-539, in the assay with SK-MEL-5, in the assay on SN12C, in the assay on SNB-75 and in the assay with SR was > 100 µM (inactive) throughout. In the assay on SW-620, the GI50 was > 100 µM (inactive).
